Reference: US20050228016A1, “TETRAHYDROQUINOLINES FOR MODULATING THE EXPRESSION OF EXOGENOUS GENES VIA AN ECDYSONE RECEPTOR COMPLEX” (priority 2002, published 2005)

Target: T1, Gal4DBD/AaEcR (DEF) (Aedes aegypti, UniProt P49880)
T1 construct: The wildtype D, E, and F domains from mosquito Aedes aegypti EcR; expressed in transfected cells; host or cells: 3T3 cells
Assay: cell-based
Assay type: cell-based
Conditions: 33 μM; 3T3 cells; 48 h; average of two wells
Procedure: 3T3 cells were trypsinized and plated at 2.5×10^3 cells/well on a 96-well plate. After incubation for 24 h at 37° C. under 5% CO2, cells were transfected with the Gal4DBD/AaEcR (DEF) gene expression cassette and the reporter plasmid, pFRLuc, containing a 5× GAL4 response element and the firefly luciferase gene in serum free media using Superfect (Qiagen). After transfection for 4 h at 37° C., the cells were treated with ligand in serum media. […] Single dose testing was performed at 33 μM.

T1 sequence (P28704 286-520 A311G/G315S/G445S/I449V): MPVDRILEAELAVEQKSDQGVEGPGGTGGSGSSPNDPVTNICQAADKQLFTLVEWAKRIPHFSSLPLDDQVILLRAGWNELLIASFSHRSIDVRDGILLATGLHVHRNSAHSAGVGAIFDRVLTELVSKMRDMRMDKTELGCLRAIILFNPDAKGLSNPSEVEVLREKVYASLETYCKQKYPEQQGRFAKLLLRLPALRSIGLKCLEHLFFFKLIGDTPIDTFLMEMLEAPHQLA
T1 sequence (P49880 405-776): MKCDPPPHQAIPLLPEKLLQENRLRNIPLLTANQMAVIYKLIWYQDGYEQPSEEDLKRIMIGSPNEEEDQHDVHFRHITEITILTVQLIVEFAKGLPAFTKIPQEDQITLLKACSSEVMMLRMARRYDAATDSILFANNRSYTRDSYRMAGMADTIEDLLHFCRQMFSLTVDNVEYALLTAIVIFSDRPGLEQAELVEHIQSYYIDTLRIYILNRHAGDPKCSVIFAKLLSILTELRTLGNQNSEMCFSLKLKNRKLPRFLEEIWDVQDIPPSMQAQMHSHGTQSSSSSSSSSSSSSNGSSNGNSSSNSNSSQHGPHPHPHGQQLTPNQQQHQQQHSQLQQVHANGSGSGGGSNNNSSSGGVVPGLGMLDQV

Compound	Fold Induction Average, AA_3T3V1 Assay 33 μM [fold]
COc1cccc(C(=O)N2c3ccccc3C(Nc3ccccc3)CC2C)c1 (centres unmarked) [Compound I-200]	212
CC1CC(Nc2ccccc2)c2ccccc2N1C(=O)COc1ccccc1Cl (centres unmarked) [Compound I-129]	1
Cc1ccc(NC2CC(C)N(C(=O)c3ccccc3F)c3ccc(C)cc32)cc1 (centres unmarked) [Compound I-51]	4
Cc1cccc(C(=O)N2c3ccc(F)cc3C(Nc3ccc(F)cc3)CC2C)c1 (centres unmarked) [Compound I-206]	142
CC1CC(Nc2ccc(F)cc2)c2cc(F)ccc2N1C(=O)c1ccc(Cl)c(F)c1 (centres unmarked) [Compound I-115]	643
COc1cccc(NC2CC(C)N(C(=O)c3ccc(C)cc3)c3ccccc32)c1 (mixture of isomers) [Compound I-46]	8
Cc1ccc(NC2CC(C)N(C(=O)c3cccc(F)c3)c3ccc(C)cc32)cc1 (centres unmarked) [Compound I-174]	1
Cc1ccc(N[C@H]2C[C@H](C)N(C(=O)Nc3cccc(Cl)c3)c3ccc(C)cc32)cc1 (relative stereo) [Compound I-218]	6
trans-2-methyl-6-fluoro-1-(3-fluoro-4-methylbenzoyl)-4-(4-methylphenylamino), 4-(3-fluoro-4-methylbenzoyl)-1,2,3,4-tetrahydroquinoline [Compound I-196]	1
CC1CC(Nc2ccc(F)cc2)c2cc(F)ccc2N1C(=O)c1ccno1 (centres unmarked) [Compound I-114]	1421
CCc1c(OC)cccc1C(=O)N1c2ccc(F)cc2C(Nc2ccc(F)cc2)CC1C (centres unmarked) [Compound I-117]	1256
CC1CC(Nc2ccccc2)c2ccccc2N1C(=O)Nc1cccc(Cl)c1 (centres unmarked) [Compound I-213]	527
COc1cccc(C(=O)N2c3ccc(F)cc3C(Nc3ccc(F)cc3)CC2C)c1 (centres unmarked) [Compound I-208]	989
CC1CC(Nc2ccccc2)c2ccccc2N1C(=O)Nc1ccccc1 (centres unmarked) [Compound I-176]	268
COc1ccc(C=CC(=O)N2c3ccccc3C(N(C(C)=O)c3ccccc3)CC2C)cc1 (centres unmarked) [Compound I-150]	1
CC1CC(Nc2ccc(F)cc2)c2cc(F)ccc2N1C(=O)c1ccnc(Cl)c1 (centres unmarked) [Compound I-116]	1100
CC1CC(N(C(=O)c2cccc(F)c2)c2ccccc2)c2ccccc2N1C(=O)c1cccc(F)c1 (centres unmarked) [Compound I-136]	1
Cc1ccc(NC2CC(C)N(C(=O)c3ccc(C)cc3)c3ccc(C)cc32)cc1 (centres unmarked) [Compound I-99]	2
Cc1ccc(NC2CC(C)N(C(=O)c3cccc(F)c3)c3ccc(C)cc32)cc1 (centres unmarked) [Compound I-203]	3
CC(=O)N(c1ccc(F)cc1)C1CC(C)N(C(=O)c2ccc(C)c(F)c2)c2ccc(F)cc21 (centres unmarked) [Compound I-195]	1
Cc1ccc(C(=O)N2c3ccccc3C(Nc3cccc(C)c3)CC2C)cc1 (mixture of isomers) [Compound I-44]	26
COc1ccc(C(=O)N2c3ccccc3C(N(C(=O)c3ccc(OC)cc3)c3ccccc3)CC2C)cc1 (centres unmarked) [Compound I-153]	1
CC(=O)N(c1ccccc1)C1CC(C)N(C(=O)c2ccc(C(C)(C)C)cc2)c2ccccc21 (centres unmarked) [Compound I-123]	1
CCc1c(OC)cccc1C(=O)N1c2ccc(C)cc2C(Nc2ccc(C)cc2)CC1C (centres unmarked) [Compound I-112]	194

Compound	Fold Induction Average, AA_3T3V1 Assay 33 μM [fold]
Cc1ccc(NC2CC(C)N(C(=O)c3ccc(C(F)(F)F)c(F)c3)c3ccc(C)cc32)cc1 (centres unmarked) [Compound I-49]	3
C[C@H]1C[C@@H](Nc2ccccc2)c2ccccc2N1C(=O)c1ccc(Cl)cc1 (relative stereo) [Compound I-29]	61
Cc1cccc(C(=O)N2c3ccccc3C(Nc3ccccc3)CC2C)c1 (centres unmarked) [Compound I-198]	135
CC1CC(Nc2ccccc2)c2ccccc2N1C(=O)Nc1ccccc1 (centres unmarked) [Compound I-211]	638
Cc1ccc(NC(=O)N2c3ccc(F)cc3[C@@H](Nc3ccc(F)cc3)C[C@@H]2C)cc1 (relative stereo) [Compound I-224]	1245
Cc1ccc(NC2CC(C)N(C(=O)c3ccccc3)c3ccc(C)cc32)cc1 (centres unmarked) [Compound I-100]	2
CC1CC(Nc2ccccc2)c2ccccc2N1C(=O)C=Cc1ccco1 (centres unmarked) [Compound I-121]	81
Cc1ccc(NC2CC(C)N(C(=O)c3ccc(Cl)cc3)c3ccc(C)cc32)cc1 (centres unmarked) [Compound I-32]	1
Cc1cccc(NC(=O)N2c3ccccc3C(Nc3ccccc3)CC2C)c1 (centres unmarked) [Compound I-215]	1052
Cc1ccc(C(=O)N2c3cc(Cl)ccc3C(Nc3ccc(F)cc3)CC2C)cc1F (mixture of isomers) [Compound I-48]	19
CC1CC(Nc2ccc(F)cc2)c2cc(F)ccc2N1C(=O)c1cccc(C(F)(F)F)c1 (centres unmarked) [Compound I-209]	384
C[C@H]1C[C@H](Nc2ccc(F)cc2)c2cc(F)ccc2N1C(=O)Nc1ccccc1 (relative stereo) [Compound I-221]	1027
CC1CC(Nc2ccccc2)c2ccccc2N1C(=O)c1cccc(C(F)(F)F)c1 (centres unmarked) [Compound I-201]	71
CCCCC(=O)N1c2ccccc2[C@@H](Nc2ccccc2)C[C@@H]1C (relative stereo) [Compound I-3]	252
C[C@H]1C[C@@H](Nc2ccccc2)c2ccccc2N1C(=O)c1ccc(F)c(F)c1 (relative stereo) [Compound I-18]	83
C[C@H]1C[C@H](Nc2ccc(F)cc2)c2cc(F)ccc2N1C(=O)Nc1cccc(Cl)c1 (relative stereo) [Compound I-223]	1414
CCc1ccc(C(=O)N2c3ccccc3C(Nc3ccccc3)CC2C)cc1 (centres unmarked) [Compound I-59]	4
COc1cccc(C(=O)N2c3ccc(C)cc3C(Nc3ccc(C)cc3)CC2C)c1 (centres unmarked) [Compound I-204]	1
COc1ccc(C=CC(=O)N2c3ccccc3C(Nc3ccccc3)CC2C)cc1 (centres unmarked) [Compound I-177]	126
C[C@H]1C[C@H](Nc2ccc(F)cc2)c2cc(F)ccc2N1C(=O)Nc1ccc(Cl)cc1 (relative stereo) [Compound I-222]	939
CC1CC(N(C(=O)C(F)(F)F)c2ccccc2)c2ccccc2N1C(=O)C(F)(F)F (centres unmarked) [Compound I-182]	1
CCCCCCCCC(=O)N1c2ccccc2[C@@H](Nc2ccccc2)C[C@@H]1C (relative stereo) [Compound I-127]	22
Cc1ccc(NC2CC(C)N(C(=O)Nc3ccc(Cl)cc3)c3ccc(C)cc32)cc1 (centres unmarked) [Compound I-217]	8
